Measured values taken from patent US6518041B1, “Hormone response element that binds an androgen and progesterone receptor” (Schering Aktiengesellschaft, priority 1998, dated 2003).

Legend:
[1] = molecular target: T1, androgen receptor (Homo sapiens, UniProt P10275); assay: consensus-HRE (ARE) luciferase reporter test system in PC-3/AR cells; assay type: cell-based
T1 construct: expressed in transfected cells; host or cells: PC-3 cells stably transformed with an androgen receptor expression vector (PC-3/AR)
T1 sequence (P10275 1-920): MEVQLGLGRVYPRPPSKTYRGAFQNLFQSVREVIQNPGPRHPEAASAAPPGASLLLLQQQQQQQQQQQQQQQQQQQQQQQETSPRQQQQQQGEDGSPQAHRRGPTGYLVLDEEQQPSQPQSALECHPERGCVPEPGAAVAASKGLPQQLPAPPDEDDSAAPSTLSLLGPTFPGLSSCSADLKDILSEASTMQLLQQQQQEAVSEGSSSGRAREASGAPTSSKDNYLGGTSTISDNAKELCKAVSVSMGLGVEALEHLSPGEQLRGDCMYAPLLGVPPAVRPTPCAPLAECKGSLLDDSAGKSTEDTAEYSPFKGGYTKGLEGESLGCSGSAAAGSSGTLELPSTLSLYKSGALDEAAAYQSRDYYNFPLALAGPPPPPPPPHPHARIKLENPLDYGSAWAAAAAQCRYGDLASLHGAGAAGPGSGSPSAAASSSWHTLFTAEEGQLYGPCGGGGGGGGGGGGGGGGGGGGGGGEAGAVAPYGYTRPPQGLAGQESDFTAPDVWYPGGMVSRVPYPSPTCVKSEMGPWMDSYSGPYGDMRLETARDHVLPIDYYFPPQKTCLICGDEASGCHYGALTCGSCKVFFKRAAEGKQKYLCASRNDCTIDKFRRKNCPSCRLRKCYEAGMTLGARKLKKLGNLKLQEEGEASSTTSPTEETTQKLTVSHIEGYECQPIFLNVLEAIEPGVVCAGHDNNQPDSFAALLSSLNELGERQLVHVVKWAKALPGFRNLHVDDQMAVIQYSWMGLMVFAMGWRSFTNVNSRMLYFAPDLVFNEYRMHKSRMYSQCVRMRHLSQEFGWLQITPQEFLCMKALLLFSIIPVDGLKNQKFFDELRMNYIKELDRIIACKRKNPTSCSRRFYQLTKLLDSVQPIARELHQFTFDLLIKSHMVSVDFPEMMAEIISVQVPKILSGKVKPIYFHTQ
Text: (§1) Test systems were compared that contained either an HRE according to the invention that corresponds to Seq. ID No. 1 (ARE17) or the consensus-HRE with the sequence (SEQ ID NO: 5) 5′-[…]-3′ (ARE). All other components were respectively the same. Copies of the ARE17 were introduced upstream from the TK minimal promoter and the luciferase gene in the pGL3-basic vector (FIG. 1). PC-3/AR cells, which already express the androgen receptor in a stable manner, were saturated in RPMI1640/10% cFS/L-glutamine for 18-24 hours and then transformed for five hours with 100 ng of reporter plasmid and the Fu-gene transfection reagent (Boehringer Mannheim). Then, the medium was replaced by RPM1640/5% cFCS/L-glutamine, and the activity of the reporter gene measured 42 hours later.
(§2) Four copies of the elements were introduced upstream from the TK minimal promoter and the luciferase gene in the pGL3-basic vector (FIG. 1) and transformed in the PC-3/AR-cells, which already express the androgen receptor in a stable manner, as described above. The stimulation was carried out with the synthetic androgen R1881 (10^−9M or 10^−7M final concentration).

[2] = molecular target: T1, androgen receptor; assay: ARE17 luciferase reporter test system in PC-3/AR cells; assay type: cell-based
Text: Preferred is the use of the luciferase reporter gene and of PC-3 cells that have been transformed in advance in a stable manner with an expression vector for the androgen receptor (PC-3/AR cells) or in a transient parallel manner. In addition, the use of the TK minimal promoter is preferred. […] A progestin is a synthetic progesterone analog.
as §1, §2

For `C[C@]1(O)CC[C@H]2[C@@H]3CCC4=CC(=O)CCC4=C3C=C[C@@]21C` [R1881], the “induction of the luciferase activity compared between ARE17, consensus-HRE and IDR17” value ([1]; 4 copies of consensus-HRE, R1881 10^-9 M or 10^-7 M) was “weakest stimulation”, the “induction of the luciferase activity” value ([2]; 2 copies of ARE17, TK minimal promoter, PC-3/AR cells, androgen receptor expression vector) was 10.5 fold and the “induction of the luciferase activity compared between ARE17, consensus-HRE and IDR17” value ([2]; 4 copies of ARE17, R1881 10^-9 M or 10^-7 M) was “strongest induction”. For the same compound, the “increase of the luciferase activity” value ([2]; 4 copies of ARE17, TK minimal promoter, PC-3/AR cells) was 46 fold, the “difference in stimulation between the two R1881 concentrations” value ([2]; 4 copies, 10^-9 M versus 10^-7 M final concentration) was “No decisive difference” and the “induction of the luciferase activity (in words)” value ([2]; ARE17, R1881 10^-7 M, measured 42 hours later) was “very strong induction”.
For `CC(C)(O)C(=O)Nc1ccc([N+](=O)[O-])c(C(F)(F)F)c1` [hydroxyflutamide], the “stimulation of the consensus-HRE in the absence of an androgen” value ([1]; 4 copies, no androgen) was “stimulated neither” and the “stimulation of ARE17 in the absence of an androgen” value ([2]; 4 copies, no androgen) was “stimulated neither”.
